Like-named read-outs stand apart in the source and are kept apart here.
Tests used:
SD rats = test: animal or person; format: in vivo; settings: for duration and recovery time compared with remimazolam / effective dose compared with remimazolam: rats, tail vein, in words
KM mice = test: animal or person; format: in vivo; settings: for duration and recovery time compared with remimazolam / effective dose compared with remimazolam: mice, tail vein, in words
[1] = Rattus norvegicus, SD rats (male, 220-300 g), injection via the tail vein, disappearance of righting reflex, read-out: ED50
[2] = SD rats, single tail vein injection at 2×ED50, time from disappearance to recovery of righting reflex
[3] = KM mice, single tail vein injection at 2×ED50, time from disappearance to recovery of righting reflex
[4] = Mus musculus, KM mice (male, 18-22 g), injection via the tail vein, disappearance of righting reflex, read-out: ED50
[5] = SD rats, single tail vein injection at 2×ED50, time from recovery of righting reflex to free crawling
[6] = KM mice, single tail vein injection at 2×ED50, time from recovery of righting reflex to free crawling

Row | Compound | ED50 (SD rats; [1]) [mg/kg] | 2ED50 duration (SD rats; [2]) [min] | 2ED50 duration (KM mice; [3]) [min] | ED50 (KM mice; [4]) [mg/kg] | 2ED50 recovery time (SD rats; [5]) [min] | Quality of recovery (SD rats; SD rats, tail vein injection) | 2ED50 recovery time (KM mice; [6]) [min] | Quality of recovery (KM mice; KM mice, tail vein injection) | further results
1 | CCOC(=O)C1(OC(=O)CC[C@@H]2N=C(c3ccccn3)c3cc(Cl)c(Cl)cc3-n3c(C)cnc32)CC1 [Example 69, Ethyl 1-((3-((4S)-8,9-dichloro-1-methyl-6-(pyridine-2-yl)-4H-benzo[f]imidazo[1,2-a][1,4]diaza-4-yl)propionyl)oxy) cyclopropane-1-carboxylate benzoic acid] | – | – | – | – | – | – | – | – | ED50 (SD rats; Rattus norvegicus): 6.1 mg/kg; 2ED50 duration (SD rats; rat, in vivo): 3.16 min; 2ED50 recovery time (SD rats; rat, in vivo): 2.48 min; Quality of recovery (SD rats; rat, in vivo): ++ (key: “+” means <1 mm; “++” means 1-3 min; “+++” means 3-5 min; “++++” means 5-10 min; “+++++” means >10 mm); ED50 (KM mice; Mus musculus): 23.8 mg/kg; 2ED50 duration (KM mice; mouse, in vivo): 3.45 min; 2ED50 recovery time (KM mice; mouse, in vivo): 2.38 min; Quality of recovery (KM mice; mouse, in vivo): ++++ (key: “+” means <1 mm; “++” means 1-3 min; “+++” means 3-5 min; “++++” means 5-10 min; “+++++” means >10 mm)
2 | CCC(CC)OC(=O)OC(OC(=O)CC[C@@H]1N=C(c2ccccn2)c2cc(Cl)c(OC(F)(F)F)cc2-n2c(C)cnc21)C1CC(F)C(CC)C1 (stereo partly drawn) [Example 68, (3-Ethyl-4-fluorocyclopentyl) (((pentanyl-3-yloxy)carbonyl)oxy)methyl 3-((4S)-8-chloro-1-methyl-6-(pyridine-2-yl)-9-(trifluoromethoxy)-4H-benzo[f]imidazo[1,2-a][1,4]diazapin-4-yl) propionate L-aspartate] | 5.9 | 4.28 | 3.09 | 28.9 | – | – | – | – | –
3 | COC(=O)C(C)OC(=O)CC[C@@H]1N=C(c2ccccn2)c2cc(Br)ccc2-n2c(C)cnc21 (stereo partly shown) [Example 60] | 3.5 | 2.12 | 2.46 | 22.5 | 2.14 | +++ (“+++” means 3-5 min) | 1.47 | ++ (“++” means 1-3 min) | –
4 | Cc1cnc2n1-c1c(Cl)c(Cl)c(Cl)c(Cl)c1C(c1ccccn1)=N[C@H]2CCC(=O)OCOC(=O)OC(C(C)C)C(C)C [Example 31] | 2.3 | 1.23 | 2.13 | 17.3 | 1.14 | + (“+” means <1 min) | 1.04 | ++ (“++” means 1-3 min) | duration and recovery time compared with remimazolam (SD rats): significantly shorter; effective dose compared with remimazolam (SD rats): significantly lower; duration and recovery time compared with remimazolam (KM mice): significantly shorter; effective dose compared with remimazolam (KM mice): significantly lower
5 | CCC(CC)OC(=O)OCOC(=O)CC[C@@H]1N=C(c2ccccn2)c2cc(Br)ccc2-n2c(C)cnc21 [Example 50] | 6.3 | 3.56 | 7.84 | 24.6 | 2.41 | ++ (“++” means 1-3 min) | 1.47 | ++ (“++” means 1-3 min) | –
6 | CCOC(=O)C1(OC(=O)CC[C@@H]2N=C(c3ccccn3)c3cc(F)c(C)cc3-n3c(C)cnc32)CC1 [Example 26] | 3.7 | 3.48 | 4.38 | 23.7 | 2.04 | ++ (“++” means 1-3 min) | 2.08 | +++ (“+++” means 3-5 min) | –
7 | Cc1c(Br)cc2c(c1Cl)-n1c(C)cnc1[C@H](CCC(=O)OC(C)(C)NC(=O)OC1CCC1)N=C2c1ccccn1 [Example 66] | 4.8 | 4.02 | 3.14 | 30.4 | 2.17 | ++ (“++” means 1-3 min) | 2.35 | +++ (“+++” means 3-5 min) | –
8 | Cc1cnc2n1-c1cc(Br)c(Br)cc1C(c1ccccn1)=N[C@H]2CCC(=O)OC(C)OC(=O)OC(C)C (stereo partly shown) [Example 17] | 4.3 | 4.39 | 4.39 | 29.2 | 2.43 | ++ (“++” means 1-3 min) | 2.53 | ++ (“++” means 1-3 min) | –
9 | CCOC(=O)C(C)(C)OC(=O)CC[C@@H]1N=C(c2ccccn2)c2c(cc(C)c(Cl)c2C)-n2c(C)cnc21 [Example 77, Ethyl 2-((3-((4S)-8-chloro-1,7,9-trimethyl-6-(pyridine-2-yl)-4H-benzo[f]imidazo[1,2-a][1,4]diazapin-4-yl)propionyl)oxy)-2-methylpropionate 2-hydroxy-1-naphthoate] | 6.1 | 2.38 | 3.28 | 30.2 | 2.47 | +++ (“+++” means 3-5 min) | 2.39 | +++ (“+++” means 3-5 min) | –
10 | Cc1cnc2n1-c1ccc(Br)cc1C(c1ccccn1)=N[C@H]2CCC(=O)OC(C)OC(=O)OC(C)C (stereo partly shown) [Example 55] | 5.2 | 3.28 | 4.65 | 28.1 | 2.51 | + (“+” means <1 min) | 1.29 | – | duration and recovery time compared with remimazolam (SD rats): significantly shorter; effective dose compared with remimazolam (SD rats): significantly lower; duration and recovery time compared with remimazolam (KM mice): significantly shorter; effective dose compared with remimazolam (KM mice): significantly lower
11 | COC(=O)C(OC(=O)CC[C@@H]1N=C(c2ccccn2)c2cc(Br)c(OC(F)(F)F)c(C)c2-n2c(C)cnc21)C1CCSC1 (stereo partly drawn) [Example 74, 2-methoxy-2-oxo-1-(tetrahydrothiophene-3-yl)ethyl 3-((4S)-8-bromo-1,10-dimethyl-6-(pyridine-2-yl)-9-(trifluoromethoxy)-4H-benzo[f]imidazo[1,2-a][1,4]diazapin-4-yl)propionate stearate] | 5.7 | 2.67 | 3.42 | 24.5 | 2.54 | +++ (“+++” means 3-5 min) | 2.17 | ++ (“++” means 1-3 min) | –
12 | CCCOC(=O)OCOC(=O)CC[C@@H]1N=C(c2ccccn2)c2c(ccc(Br)c2F)-n2c(C)cnc21 [Example 72, ((Propoxycarbonyl)oxy)methyl 3-((4S)-8-bromo-7-fluoro-1-methyl-6-(pyridine-2-yl)-4H-benzo[f]imidazo [1,2-a][1,4]diaza-4-ylpropionate sulfonate] | 4.9 | 4.01 | 3.12 | 32.5 | 2.43 | ++ (“++” means 1-3 min) | 2.48 | +++ (“+++” means 3-5 min) | –
13 | CCOC(=O)COC(=O)CC[C@@H]1N=C(c2ccccn2)c2cccc(Cl)c2-n2c(C)cnc21 [Example 37] | 5.7 | 3.02 | 4.42 | 25.7 | 2.51 | ++ (“++” means 1-3 min) | 1.58 | ++ (“++” means 1-3 min) | –
14 | CCOC(=O)C1(OC(=O)CC[C@@H]2N=C(c3ccccn3)c3cc(Br)ccc3-n3c(C)cnc32)CC1 [Example 59, Ethyl 1-((3-((4S)-8-bromo-1-methyl-6-(pyridine-2-yl)-4H-benzo[f]imidazo [1,2-a][1,4]diaza-4-yl)propionyl)oxy) cyclopropane-1-carboxylate] | 1.76 | 5.02 | 2.77 | 13.8 | 2.51 | ++ (“++” means 1-3 min) | 1.38 | – | duration and recovery time compared with remimazolam (SD rats): significantly shorter; effective dose compared with remimazolam (SD rats): significantly lower; duration and recovery time compared with remimazolam (KM mice): significantly shorter; effective dose compared with remimazolam (KM mice): significantly lower
15 | COC(=O)COC(=O)CC[C@@H]1N=C(c2ccccn2)c2cc(Br)c(Br)cc2-n2c(C)cnc21 [Example 20] | 4.7 | 3.47 | 4.47 | 31.4 | 2.49 | ++ (“++” means 1-3 min) | 2.43 | +++ (“+++” means 3-5 min) | –
16 | (((((3-Methylbutane-2-yl)oxy)carbonyl)oxy) methyl 3-((4S)-9-bromo-8-fluoro-1-methyl-6- (pyridine-2-yl)-4H-benzo[f]imidazo [1,2-a][1,4]diaza-4-ylpropionate formate [Example 73] | – | – | – | – | – | – | – | – | 2ED50 duration (SD rats; rat, in vivo): 2.45 min; 2ED50 recovery time (SD rats; rat, in vivo): 2.44 min; ED50 (SD rats; rat, in vivo): 5.2 mg/kg; Quality of recovery (SD rats; rat, in vivo): ++ (key: “+” means <1 mm; “++” means 1-3 min; “+++” means 3-5 min; “++++” means 5-10 min; “+++++” means >10 mm); 2ED50 duration (KM mice; mouse, in vivo): 3.33 min; 2ED50 recovery time (KM mice; mouse, in vivo): 2.38 min; ED50 (KM mice; mouse, in vivo): 26.3 mg/kg; Quality of recovery (KM mice; mouse, in vivo): +++ (key: “+” means <1 mm; “++” means 1-3 min; “+++” means 3-5 min; “++++” means 5-10 min; “+++++” means >10 mm)
17 | COC(=O)C1(OC(=O)CC[C@@H]2N=C(c3ccccn3)c3cc(Cl)c(Br)cc3-n3c(C)cnc32)CC1 [Example 45] | 7.1 | 3.01 | 2.20 | 30 | 2.00 | ++ (“++” means 1-3 min) | 1.53 | ++++ (“++++” means 5-10 min) | –

From US12473291B2 (priority 2019, dated 2025)
